# From patent US10682409B2, “Therapeutic treatment” (priority 2012, dated 2020)
# What was measured:
# Type in all cases: in vivo, human
# [1] = Examples 3-11: weight and height (velocity, percentile curve, course) of ADHD Patients A-H
# Protocol: In an embodiment, a therapeutically effective amount of a therapeutic compound disclosed herein increases the weight or height of an individual is determined by an increase in the individual's weight or height velocity as compared to an individual nor receiving a therapeutic compound for appetite reduction. In an embodiment, weight and/or height velocity can be calculated by taking measurements of height and/or weight of an individual over a period of time and measuring an increase or decrease in an individual's height and/or weight over the period of time. In an embodiment, weight velocity is calculated by taking three time points, time 0 upon initiation of medication to treat ADHD, time 1 addition of an appetite stimulant, time 2 the last data point after initiation of combination treatment. In an embodiment, a formula to calculate weight and height velocity for stimulant alone is (weightT1−weight T0)/days from Time 0 to time 1. In an embodiment, a formula to calculate weight velocity for combination treatment is (weightT2−weight T1)/days from time 1 to time 2. In an embodiment, to evaluate whether weight velocity increased after addition of an appetite stimulant, the weight velocity of time 0 to time 1 is compared to the weight velocity from time 1 to time 2. In an embodiment, height velocity is calculated by taking three time points, time 0 upon initiation of medication to treat ADHD, time 1 addition of an appetite stimulant, time 2 the last data point after initiation of combination treatment. The formula to calculate height velocity for stimulant alone is (weightT1−weight T0)/days from Time 0 to time 1. The formula to calculate height velocity for combination treatment is (weightT2−weight T1)/days from time 1 to time 2. In an embodiment, to evaluate whether height velocity increased after addition of an appetite stimulant, the height velocity of time 0 to time 1 is compared to the height velocity from time 1 to time 2.
# Eight patients, identified as patients A-H, that came in suffering from ADHD were treated for ADHD. […] Each patient was then prescribed an appetite simulant to be taken along with the amphetamine or methylphenidate. The patients' weight, height and attentiveness were then followed during the course of treatment.
# (§1) The age range of the patients was from 6-15 years of age, with a mean age at the start of treatment for ADHD of 8.4 years of age. The mean age at the start of the combination treatment wherein the patient was administered an amphetamine or methylphenidate and an appetite stimulant was 10.3 years of age. The mean treatment period for the eight patients was 1,108 days with a mean of 2.55 ADHD medication changes during the treatment period. Attentiveness in the eight patients was measured using CGI-S and CGI-I. Patients weight and height velocity were measured to identify a difference in weight and height gain prior to and after addition of an appetite stimulant to the treatment for ADHD. Weight velocity was calculated by taking three time points, time 0 upon initiation of medication to treat ADHD, time 1 addition of an appetite stimulant, time 2 the last data point after initiation of combination treatment. The formula to calculate weight velocity for stimulant alone is (weightT1−weight T0)/days from Time 0 to time 1. The formula to calculate weight velocity for combination treatment is (weightT2−weight T1)/days from time 1 to time 2.
# [2] = system: patients suffering from ADHD; assay: Clinical Global Impression-Severity scale (CGI-S), Patients A-H
# Protocol: In an embodiment, attentiveness is measured using the Clinical Global Impression rating scales to measure symptom severity, treatment response and the efficacy of treatments in treatment studies of patients with mental disorders (Guy, W., 1976). In an embodiment, attentiveness is measure using the Clinical Global Impression-Severity scale (“CGI-S”). In an embodiment, CGI-S is a 7-point scale that requires the clinician to rate the severity of the patient's illness at the time of assessment, relative to the clinician's past experience with patients who have the same diagnosis. Considering total clinical experience, a patient is assessed on severity of mental illness at the time of rating 1, normal, not at all ill; 2, borderline mentally ill; 3, mildly ill; 4, moderately ill; 5, markedly ill; 6, severely ill; or 7, extremely ill. In an embodiment, attentiveness is measured using the Clinical Global Impression-Improvement scale (“CGI-I”). […] In an embodiment, attentiveness is measured using the Clinical Global Impression-Efficacy Index (“CGI-E”).
# as §1
# [3] = system: patient suffering from ADHD; assay: Example 1: patient suffering from ADHD treated with and without an appetite stimulant (appetite, blood glucose, attentiveness by CGI-S and CGI-I)
# Text: A patient suffering from ADHD is prescribed and administered an amphetamine to treat ADHD. The patient takes the amphetamine once a day in the morning or afternoon. […] As a result, the glucose level measured in the blood increases as shown in FIG. 1 and the patient's attentiveness recovers as measured by CGI-S and CGI-I. By taking the appetite stimulant during the time when the patient was awake, the patient increased their caloric intake during times when the patient needed to maintain their attentiveness in order to have reasonable cognition and/or social behaviour.
# [4] = Example 2 case study: child with ADHD on methylphenidate, then Periactin (height, weight, percentiles, attentiveness); details: for height percentile compared to girls their age / weight percentile compared to girls their age / weight: methylphenidate
# Text: Case study: A child was presented by their parents for symptoms of attention deficit hyperactivity disorder. Their size at evaluation was 4′1¾″ and 50 lbs, corresponding to the 81st and 50th percentiles when compared to girls their age. […] At three months following the initiation of treatment for ADHD, the child was 4′2⅞″ and 50½ lbs, corresponding to the 85th and 34rd percentiles when compared to girls their age. At one year, they were 4′4⅜″ and 53 lbs, corresponding to the 84th and 36th percentiles when compared to girls their age. At two years they were 4′5¾″ and 54 lbs, corresponding to the 72nd and 17th percentiles when compared to girls their age. At four years of treatment they were 4′7⅜″ and 59 lbs, corresponding to 70th and 14th percentiles when compared to girls their age. At five years of treatment they were 4′9⅞″ and 64½ lbs, corresponding to 59th and 7th percentiles when compared to girls their age.
# The child was then prescribed Periactin at a dosage of 2 mg b.i.d. to attempt to stimulate appetite. The dose was taken in the morning and then in the afternoon. After one year they were 4′11½″ and 72½ lbs, corresponding to 33rd and 5th percentiles when compared to girls their age. The child was then prescribed Periactin at a dose of 4 mg b.i.d. After two months on this dose, they were 5′¼″ and 76 lbs, corresponding to 37th and 8th percentiles when compared to girls their age. At 8 months on this dose, they were 5′½″ and 80 lbs, corresponding to 41st and 8th percentiles when compared to girls their age. At one year on this dose, they were 5′2¾″ and 89½ lbs, corresponding to 51st and 17th percentiles when compared to girls their age. At 18 months on this dose, they were 5′3⅝″ and 99½ lbs, corresponding to 56th and 30th percentiles when compared to girls their age. Additionally, the attentiveness of the child increase following the prescription of Periactin as they increased their food intake during the day.
# [5] = Patient E, Concerta 27 mg then Focalin XR 10-15 mg alone, FIG. 12
# [6] = various forms of methylphenidate
smiles,measurement,setting,value
"COC(=O)C(c1ccccc1)C1CCCCN1 (centres unmarked) [Concerta, methylphenidate]",weight course,"[1]; Patient A, Concerta 18 mg alone, from about day 371, FIG. 4",began to lose weight again
same,weight course,"[1]; Patient C, Concerta 36 mg alone, FIG. 8",little weight gain followed by weight loss
same,weight course,[1]; [5],did not increase substantively
same,CGI-S score,"[2]; Patient A, Concerta 18 mg alone, constant for almost 400 days, FIG. 5",4
same,CGI-S score,"[2]; Patient C, Concerta 36 mg alone, FIG. 9",5
same,CGI-S score,"[2]; Patient D, Concerta 18 mg before combination, FIG. 11",6
"COC(=O)C(c1ccccc1)C1CCCCN1 (centres unmarked) [Daytrana patch, methylphenidate]",CGI-S score,"[2]; Patient F, Daytrana patch 15 mg (day 469), 20 mg (day 606), FIG. 15",5
"COC(=O)[C@H](c1ccccc1)[C@H]1CCCCN1 [Focalin XR, dexmethylphenidate]",weight course,"[1]; Patient B, Focalin XR 10 mg then 15 mg alone, FIG. 6",slow and then became slightly erratic
same,weight course,[1]; [5],did not increase substantively
same,CGI-S score,"[2]; Patient E, Focalin XR 10 mg (before dose increase), FIG. 13",6
same,CGI-S score,"[2]; Patient E, Focalin XR 15 mg from day 162, FIG. 13",5
same,CGI-S score,"[2]; Patient G, Focalin XR 15 mg alone (dropped from 5), FIG. 17",4
"COC(=O)C(c1ccccc1)C1CCCCN1 (centres unmarked) [Ritalin LA, methylphenidate]",weight course,"[1]; Patient F, Ritalin LA with Focalin, then Daytrana patch, without Periactin, FIG. 14",did not increase substantively
same,CGI-S score,"[2]; Patient F, Ritalin LA 20 mg and Focalin 5 mg, FIG. 15",7
same,CGI-S score,"[2]; Patient F, Ritalin LA 30 mg and Focalin 5 mg from day 46, FIG. 15",6
"C[C@@H](Cc1ccccc1)NC(=O)[C@@H](N)CCCCN [Vvyanase, lisdexamfetamine]",weight course,"[1]; Patient H, Vvyanase 40 mg alone, FIG. 18",little weight gain
same,CGI-S score,"[2]; Patient H, Vvyanase 40 mg alone (dropped from 6), FIG. 19",5
CC(N)Cc1ccccc1 (centres unmarked) [amphetamine],attentiveness as measured by CGI-S and CGI-I,[3]; amphetamine once a day alone,lack of attentiveness
same,glucose level measured in the blood,"[3]; amphetamine once a day alone, FIG. 1",drops
same,appetite,"[3]; amphetamine once a day in the morning or afternoon, alone",loss of appetite
COC(=O)C(c1ccccc1)C1CCCCN1 (centres unmarked) [methylphenidate],height percentile compared to girls their age,[4]; five years,59 percentile
same,weight percentile compared to girls their age,[4]; five years,7 percentile
same,height percentile compared to girls their age,[4]; four years,70 percentile
same,weight percentile compared to girls their age,[4]; four years,14 percentile
same,weight,[4]; four years of treatment,59 lbs
same,height percentile compared to girls their age,[4]; one year,84 percentile
same,weight,[4]; one year,53 lbs
same,weight percentile compared to girls their age,[4]; one year,36 percentile
same,height percentile compared to girls their age,[4]; three months,85 percentile
same,weight percentile compared to girls their age,[4]; three months,34 percentile
same,height percentile compared to girls their age,[4]; two years,72 percentile
same,weight,[4]; two years,54 lbs
same,weight percentile compared to girls their age,[4]; two years,17 percentile
same,response of ADHD to treatment,[4]; [6],responded well
same,side-effect,[4]; [6],suppression of appetite and a lack of significant weight gain
